Experimental data reported in the METLIN SMRT retention time set (Domingo-Almenara et al. 2019).

Test: gradient 5% acetonitrile 3 min, to 50% in 2 min, to 85% in 15 min, held 3 min, 100 µL/min
Conditions: column: Zorbax Extend-C18 2.1 x 50 mm; eluents: water / acetonitrile, 0.1% formic acid
How it was run: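 Data were gathered over 3 months by HPLC coupled to a quadrupole time-of-flight mass spectrometer, operated in positive and negative ionization mode. Mixtures of ~100 pure standards ran on a Zorbax Extend-C18 column (2.1 × 50 mm, 1.8 μm) at 100 μL/min, with water and acetonitrile each containing 0.1% formic acid and dead and dwell volumes of 40 μL and 900 μL. Retention time was read from adduct peaks picked by computer and checked manually.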

RP-LC retention time | SMILES
606 s | O=C(Nc1ccc2c(c1)OCCO2)C1(CCO)CCN(c2ncccn2)C1 (configuration not stated)
705 s | O=C(NCCc1ccccc1)C1CCCN(C(=O)c2cc(-c3ccccn3)n[nH]2)C1 (configuration not stated)
720 s | CC(C)NC(=O)C1CCCN(C(=O)Nc2ccc(NC(=O)Nc3ccccc3)cc2)C1 (configuration not stated)
723 s | O=C(NCc1ccc(F)c(Cl)c1)c1cn2ccccc2n1
568 s | CC(=O)NCc1c(-c2ccc(Cl)cc2)nc2n1CCS2
736 s | CCOC(=O)c1cnc2nc(C)ccc2c1Nc1cc(F)cc(F)c1
638 s | CCc1nnc2nc(N3CCN(C(=O)c4ccc(Cl)s4)CC3)cc(C)n12
1130 s | CC(C)n1c(=O)c2ccccc2n(Cc2nc(-c3ccccc3Cl)no2)c1=O
865 s | COC(=O)c1ccc(NC(=O)c2cc(C(C)(C)C)n3nccc3n2)cc1
606 s | CC1CCN(c2ccc(N3CCN(S(=O)(=O)c4cc(F)ccc4F)CC3)nn2)CC1
623 s | CCn1cc(-c2ccc(OC)cc2)cc1C(=O)NCCN1CCN(C)CC1
857 s | COCC(=O)Nc1cnc(-c2ccc(Cl)cc2)nc1
787 s | Cc1ccc(-c2cc(N3CCOCC3)c3cc(NC(=O)NC4CCCCC4)ccc3n2)cc1
893 s | CCCCN(C)C(=O)Cn1c(=O)c(S(=O)(=O)c2ccccc2)cc2ccccc21
897 s | CCCCCNC(=O)c1cn(C)nc1S(=O)(=O)N1CCSCC1
819 s | CCC(C)NC(=O)c1nc(Nc2cccc(C)c2)c2ccccc2n1 (configuration not stated)
769 s | O=C(NCc1ccc(F)cc1)C1CCN(c2cnc3nccnc3c2)CC1
807 s | COc1cc(Cl)ccc1C(=O)NC1CCN(c2cc(-c3ccc(F)cc3)[nH]n2)C1 (configuration not stated)
930 s | COc1ccc(C)cc1NC(=O)Cc1csc2nc(-c3ccc(C)c(C)c3)cn12
817 s | CCn1c(CCC(=O)NCc2ccccc2OC)nc2ccc(C)cc2c1=O
726 s | CCCN(C)c1nccn2c(=O)n(CC(=O)Nc3ccc(C)c(F)c3)nc12
827 s | Cc1cc(S(=O)(=O)N(C)C2CCc3nn(CC4CC4)c(=O)n3CC2)ccc1Cl (configuration not stated)
846 s | Cc1cc(C)cc(NC(=O)CN2C(=O)CC(C)S(=O)(=O)c3ccccc32)c1 (configuration not stated)
571 s | Cc1cn(C)c(CC(=O)NCCCN2CCOCC2)c1C(=O)O

The remaining lines, values behind:

SMILES | RP-LC retention time
COCCN1C(=O)CCc2cc(NC(=O)c3ccco3)ccc21 | 654 s
Cc1nc(-c2noc(-c3ccccc3)n2)cn1CC(=O)Nc1ccc(Cl)cc1 | 885 s
O=C(Nc1ccc2c(c1)OCCO2)c1cnc(-c2ccc(F)cc2)nc1-c1ccncc1 | 831 s
COc1ccc(Cl)cc1NC(=O)c1coc(NC(=O)C2CC2)n1 | 770 s
Cc1sc(NC(=O)c2ccccc2)nc1-c1ccc2c(c1)N(C)C(=O)CO2 | 952 s
Cc1cc(C)n(C(C)CC(=O)N2CCN(S(=O)(=O)c3ccc(Cl)cc3)CC2)n1 (configuration not stated) | 750 s
CCC(C(=O)NC(C)C(=O)N1CCCCC1)n1c2ccccc2c2cnn(C)c(=O)c21 (configuration not stated) | 670 s
O=C(Nc1cc(F)c(F)c(F)c1)N1C[C@H]2C[C@H](C1)[C@H]1CCCC(=O)N1C2 | 717 s
Cc1cccc(C(=O)Nc2cc(-c3ccsc3)no2)c1 | 992 s
NC(=O)c1cccc2[nH]c(-c3ccc(C4CCCN4)cc3F)nc12 (configuration not stated) | 621 s
COCCn1nc2n(c1=O)CCN(C(=O)C1(c3ccccc3)CCCC1)CC2 | 730 s
Cc1nn(-c2ccccc2)c(C)c1S(=O)(=O)N1CCC(C(=O)NCc2ccc(Cl)cc2)CC1 | 966 s
COc1ccc(-n2cc(C(=O)OCc3ccco3)c3ccccc3c2=O)cc1 | 970 s
COc1ccc(-n2nnc(-c3nc(-c4cc(OC)ccc4OC)cs3)c2C)cc1 | 1140 s
O=C(Nc1ccc(-n2cnnn2)cc1)c1csc(Nc2ccccc2)n1 | 777 s
COc1ccc(CCc2nc3nccc(-c4ccc5c(c4)OCCCO5)n3n2)cc1OC | 874 s
Cc1ccc(S(=O)(=O)NC2CCN(c3ncnc4c3CCC4)C2)cc1 (configuration not stated) | 628 s
COc1ccc(C2(C(=O)N3CCC4(CC3)NCCc3c4[nH]c4ccccc34)CC2)cc1 | 681 s
O=C(Nc1ccc(N2CCOCC2)cc1)C1=Cc2cc(Cl)ccc2OC=C1 | 992 s
CCCn1nnc(NCc2ccc(-c3ccc(C)c(Cl)c3)o2)n1 | 1130 s
CC(=O)N1CCC(C(=O)Nc2ccc(OCc3nnc(-c4ccc(Cl)cc4)o3)cc2)CC1 | 758 s
CC1=CC(C)(C(Cl)(Cl)Cl)C(C)=C/C1=N/O (configuration not stated) | 1100 s

SMILES | RP-LC retention time
Cc1ccc(C)c(-c2coc(-c3ccc(NC(=O)Cc4cccs4)cc3)n2)c1 | 1230 s
C=CCNCc1ccc(-c2cccc(C(F)(F)F)c2)o1 | 714 s
O=C(C1=CN(c2ccccc2)c2cc(F)ccc2S1(=O)=O)N1CCCCC1 | 882 s
O=C(OCCc1ccccn1)c1cn(-c2ccccc2)c(=O)c2ccccc12 | 696 s
COc1cccc(CCC(=O)Nc2cnn(-c3ncc(N4CCCC4)cn3)c2)c1 | 829 s
Cc1ccc(S(=O)(=O)N2CCCC(Cn3c(C)nc4cccnc43)C2)c(C)c1 (configuration not stated) | 747 s
Cc1cccc(CN2CC(=O)N(c3ccc(C)c(C)c3)[C@@H]3CS(=O)(=O)C[C@@H]32)c1 | 906 s
O=[N+]([O-])c1ccc2[nH]c3nc4ccccc4nc3c2c1 | 876 s
C=CCNC(=O)c1c(O)c2cccnc2n(-c2ccc(OC)cc2)c1=O | 1020 s
Cc1ccc2nc(C(=O)NCc3cc(F)ccc3F)cn2c1 | 655 s
Cc1cccc(Sc2nccnc2N2CCC(C(=O)NC3CCCCC3)CC2)c1 | 1150 s
O=C(CSc1ccc(-c2ccc(-n3ccnc3)cc2)nn1)NCc1ccco1 | 554 s
Cc1nc2cc(-c3noc(-c4cccc(F)c4)n3)ccc2n(C)c1=O | 1020 s
O=S(=O)(c1cc(-c2nnc(C3CCC3)o2)co1)N1CCN(c2ccccc2F)CC1 | 1070 s
COc1ccccc1-c1noc(C2CCCN2C(=O)CSc2ccncc2)n1 (configuration not stated) | 611 s
Cc1ccc(N2CC(c3nc(-c4ccc(Cl)cc4)no3)CC2=O)cc1 (configuration not stated) | 1010 s
COc1ccccc1C(=O)N1CCC(COc2ccc(C(=O)NC(C)C)cc2)CC1 | 817 s
O=C(NCc1nnnn1C1CCCCC1)c1cccs1 | 715 s
CS(=O)(=O)N1CCC(CNC(=O)CSCc2ccccc2)CC1 | 691 s
Cc1cc(C)cc(NC(=O)N2C[C@@H](F)C[C@H]2C(=O)N2CCc3ccccc3C2)c1 | 879 s
CCCCN1CCN(Cc2nc3nc(C)cc(N4CCCC4)n3n2)CC1 | 574 s
